PubChem BioAssay (NCI)
“And” between values parts separate entries of the source, which are not always exact repeats. Equal values may be shown once.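 Step 1: Grow cells in 96-well plates. Step 2: Expose to compound for 48 hours at 5 concentrations. Step 3: Interpolate endpoints linearly; if unreached, use highest concentration. GI50 is the concentration that inhibits growth by half. TGI is the concentration that stops growth completely.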

Tests used:
Assay in all cases: growth of human tumour cells (NCI), 48 h
[1] = test system: IGROV1 ovarian
[2] = test system: NCI-H226 lung
[3] = test system: NCI/ADR-RES ovarian
[4] = test system: SN12C renal
[5] = test system: SK-OV-3 ovarian
[6] = test system: MALME-3M melanoma
[7] = test system: OVCAR-3 ovarian
[8] = test system: SW-620 colon
[9] = test system: 786-0 renal
[10] = test system: RPMI-8226 leukemia

Row | Structure (SMILES) | GI50 [1] [µM] | TGI [1] | GI50 [2] [µM] | TGI [2] | GI50 [3] [µM] | TGI [3] | GI50 [4] [µM] | TGI [4] | GI50 [5] [µM] | TGI [5] [µM] | GI50 [6] [µM] | TGI [6] | GI50 [7] [µM] | TGI [7] | GI50 [8] [µM] | TGI [8] [µM] | TGI [9] [µM] | TGI [10] [µM] | GI50 [10] [µM]
1 | O=c1ccc2nc(-c3ccccn3)nn(-c3ccccc3)c-2c1 | 2.63 | 6.65 µM | 3.2 | 11.9 µM | 6.91 | 65.3 µM | 2.24 | 5.33 µM | 11.1 | 24.1 | 1.77 | 3.37 µM | 1.77 | 3.17 µM | 1.77 | 3.66 |  |  | 
2 | CCOC(=O)c1c(-c2cccc3ccccc23)c(C#N)c(=S)n(C2OC(COC(C)=O)C(OC(C)=O)C(OC(C)=O)C2OC(C)=O)c1C (stereo not given) |  | > 100 µM |  | > 100 µM |  | > 100 µM |  | > 100 µM |  | > 100 |  | > 100 µM |  | > 100 µM |  |  | > 100 |  | 
3 | COc1ccc(C[C@H](N)C(=O)N2C[C@@H](CO)C[C@@H](n3ccc(=O)[nH]c3=O)C2)cc1 |  | > 100 µM |  | > 100 µM |  |  |  | > 100 µM |  | > 100 |  | > 100 µM |  | > 100 µM |  | > 100 |  | > 100 | 
4 | COC(=O)C1=C(C(=O)OC)SC2(S1)C(C(=O)OC)=C(C(=O)OC)Sc1c2ssc1=NC(C)(C)C |  | 3.16 µM |  | 12.8 µM |  | 7.73 µM |  | 2.52 µM |  | 18.1 |  | 5.09 µM |  | 3.5 µM |  |  | 2.62 |  | 
5 | C=CCn1c(-c2ccc([N+](=O)[O-])cc2)csc1=N |  | > 100 µM |  | > 100 µM |  | > 100 µM |  | > 100 µM |  | > 100 |  | > 100 µM |  | > 100 µM |  | > 100 | > 100 |  | 
6 | C=C(C(=O)O[C@H]1C(=O)C2=C(C)CCC3C(=C)C(=O)O[C@@H]3C2[C@]1(C)O)C1CC[C@]2(C)CCCC(=C)[C@H]2C1 (stereo not given in full) | 7.28 | 13.8 µM and 11.3 µM | 6.81 | 16 µM and 36.6 µM | 8.52 | 33.6 µM and > 23.8 µM | 7.25 | 15.5 µM and 8.62 µM |  | 30.5 | 15.5 | 16.3 µM and 31.1 µM | 3.39 | 9.84 µM and 9.06 µM |  | 21.2 | 4.29 |  | 
7 | Oc1ccc(Cl)cc1C1=NC(/N=C\c2ccccc2)=NC(c2ccccc2)C1 (stereo not given) |  | > 100 µM |  | > 100 µM |  | > 100 µM |  | > 100 µM |  | 74.7 |  |  |  | > 100 µM |  | > 100 | > 100 |  | 
8 | CCCCNC(=O)/N=C/c1c(O)c2ccccc2oc1=O |  | > 100 µM |  | > 100 µM |  |  |  | > 100 µM |  |  |  |  |  |  |  | > 100 |  | > 100 | 
9 | CCCC(=O)[O-].N.N.N.N.N.[Co+3].[O-][Cl+3]([O-])([O-])[O-] |  | > 100 µM |  |  |  |  |  | > 100 µM |  | > 100 |  | > 100 µM |  | > 100 µM |  | > 100 | > 100 | > 100 | 
10 | O=c1c2ccccc2nc(N/N=C/c2ccccc2O)n1-c1ccccc1 |  | > 100 µM |  | > 100 µM |  | 7.71 µM |  | > 100 µM |  | > 100 |  | > 100 µM |  | 17.2 µM |  | > 100 | 2.86 |  | 
11 | Cc1nc2ccccc2c(/C=C/c2ccc(Cl)cc2)c1C(=O)/C=C/c1ccccc1 | 1.24 | 3.68 µM | 1.58 | 3.22 µM |  |  | 1.67 | 3.36 µM |  |  | 1.63 | 3.01 µM | 1.36 | 2.77 µM |  |  |  | 6.5 | 1.26
12 | CC1=C(C)C(=O)C(C2=CC(=O)C=CC2=O)=C(C2=CC(=O)C=CC2=O)C1=O |  | > 100 µM |  | > 100 µM |  | > 100 µM |  | > 71.8 µM |  | > 100 |  | > 100 µM |  |  |  | > 76.2 | > 100 |  | 
13 | COC(=O)C(NC(=O)c1ccccc1)C(c1ccc(Cl)cc1)P(=O)(OC)OC (stereo not given) |  | > 100 µM |  | > 100 µM |  |  |  | > 100 µM |  | > 100 |  |  |  |  |  | > 100 |  | > 100 | 
14 | Cc1ccc(CCC(=O)C(=O)O)s1 |  | > 100 µM |  |  |  |  |  | > 100 µM |  | > 100 |  | > 100 µM |  | > 100 µM |  | > 100 |  | > 100 | 
15 | COc1ccc(Sc2ccccc2N)cc1 |  | > 100 µM |  | 89.4 µM |  |  |  | > 100 µM |  | > 100 |  | > 100 µM |  | > 100 µM |  | > 100 |  | > 100 | 
16 | O=C(N/N=C/c1cc(Br)cc(Br)c1[O-])c1ccccc1O.O=C(N/N=C/c1cc(Br)cc(Br)c1[O-])c1ccccc1O.[Ni+2] |  | 1.34 µM |  | 1.56 µM |  |  |  |  |  | 1.95 |  | 1.98 µM |  | 0.52 µM |  | 1.94 |  |  | 
17 | COC1OC2=CCC3C(=O)NC(=O)C3C2[C@H](OCc2ccccc2)C1OCc1ccccc1 (stereo not given in full) |  | 3.86 µM |  |  |  |  |  | 3.14 µM |  | 30.8 |  | 3.26 µM |  | 3.1 µM |  | 2.95 |  |  | 
18 | COc1ccc2nc3cc(Cl)ccc3c(NCCNc3c4ccc(Cl)cc4nc4ccc(OC)cc34)c2c1 |  |  |  |  |  |  |  |  | 1.73 | 3.13 | 2.07 | 3.76 µM |  |  | 1.1 | 2.98 |  | 4.59 | 2.04
